Assay results from patent US7951824B2, “4-aryl-pyridine-2-carboxyamide derivatives” (Hoffman-La Roche Inc., priority 2006, dated 2011).

Biological target: T1, human mGlu 5a receptor (Homo sapiens, UniProt P41594)
T1 construct: expressed in transfected cells; host or cells: EBNA cells (transient transfection), membrane homogenates
Test: [3H]MPEP competition binding on membranes of EBNA cells transfected with human mGlu 5a receptor
Conditions: competition with [3H]MPEP (2 nM), 1 h at 4° C., EBNA cell membranes
Description: The pharmacological activity of the compounds was tested using the following method: For binding experiments, cDNA encoding human mGlu 5a receptor was transiently transfected into EBNA cells using a procedure described by Schlaeger and Christensen [Cytotechnology 15:1-13 (1998)]. Cell membrane homogenates were stored at −80° C. until the day of assay where upon they were thawed and resuspended and polytronised in 15 mM Tris-HCl, 120 mM NaCl, 100 mM KCl, 25 mM CaCl2, 25 mM MgCl2 binding buffer at pH 7.4 to a final assay concentration of 20 μg protein/well.
Saturation isotherms were determined by addition of twelve [^3H] MPEP concentrations (0.04-100 nM) to these membranes (in a total volume of 200 μd) for 1 h at 4° C. Competition experiments were performed with a fixed concentration of [^3H]MPEP (2 nM) and IC50 values of test compounds evaluated using 11 concentrations (0.3-10,000 nM). Incubations were performed for 1 h at 4° C.
At the end of the incubation, membranes were filtered onto unifilter (96-well white microplate with bonded GF/C filter preincubated 1 h in 0.1% PEI in wash buffer, Packard Bio-Science, Meriden, Conn.) with a Filtermate 96 harvester (Packard BioScience) and washed 3 times with cold 50 mM Tris-HCl, pH 7.4 buffer. Nonspecific binding was measured in the presence of 10 μM MPEP. The radioactivity on the filter was counted (3 min) on a Packard Top-count microplate scintillation counter with quenching correction after addition of 45 μl of microscint 40 (Canberra Packard S. A., Zürich, Switzerland) and shaking for 20 min.
For binding experiments the Ki values of the compounds tested are given. The Ki value is defined by the following formula: KiIC50/[1+L/Kd] in which the IC50 values are those concentrations of the compounds tested which cause 50% inhibition of the competing radioligand ([^3H]MPEP). L is the concentration of radioligand used in the binding experiment and the Kd value of the radioligand is empirically determined for each batch of membranes prepared.

T1 sequence (P41594 21-1180 isoform P41594-2 limits assumed): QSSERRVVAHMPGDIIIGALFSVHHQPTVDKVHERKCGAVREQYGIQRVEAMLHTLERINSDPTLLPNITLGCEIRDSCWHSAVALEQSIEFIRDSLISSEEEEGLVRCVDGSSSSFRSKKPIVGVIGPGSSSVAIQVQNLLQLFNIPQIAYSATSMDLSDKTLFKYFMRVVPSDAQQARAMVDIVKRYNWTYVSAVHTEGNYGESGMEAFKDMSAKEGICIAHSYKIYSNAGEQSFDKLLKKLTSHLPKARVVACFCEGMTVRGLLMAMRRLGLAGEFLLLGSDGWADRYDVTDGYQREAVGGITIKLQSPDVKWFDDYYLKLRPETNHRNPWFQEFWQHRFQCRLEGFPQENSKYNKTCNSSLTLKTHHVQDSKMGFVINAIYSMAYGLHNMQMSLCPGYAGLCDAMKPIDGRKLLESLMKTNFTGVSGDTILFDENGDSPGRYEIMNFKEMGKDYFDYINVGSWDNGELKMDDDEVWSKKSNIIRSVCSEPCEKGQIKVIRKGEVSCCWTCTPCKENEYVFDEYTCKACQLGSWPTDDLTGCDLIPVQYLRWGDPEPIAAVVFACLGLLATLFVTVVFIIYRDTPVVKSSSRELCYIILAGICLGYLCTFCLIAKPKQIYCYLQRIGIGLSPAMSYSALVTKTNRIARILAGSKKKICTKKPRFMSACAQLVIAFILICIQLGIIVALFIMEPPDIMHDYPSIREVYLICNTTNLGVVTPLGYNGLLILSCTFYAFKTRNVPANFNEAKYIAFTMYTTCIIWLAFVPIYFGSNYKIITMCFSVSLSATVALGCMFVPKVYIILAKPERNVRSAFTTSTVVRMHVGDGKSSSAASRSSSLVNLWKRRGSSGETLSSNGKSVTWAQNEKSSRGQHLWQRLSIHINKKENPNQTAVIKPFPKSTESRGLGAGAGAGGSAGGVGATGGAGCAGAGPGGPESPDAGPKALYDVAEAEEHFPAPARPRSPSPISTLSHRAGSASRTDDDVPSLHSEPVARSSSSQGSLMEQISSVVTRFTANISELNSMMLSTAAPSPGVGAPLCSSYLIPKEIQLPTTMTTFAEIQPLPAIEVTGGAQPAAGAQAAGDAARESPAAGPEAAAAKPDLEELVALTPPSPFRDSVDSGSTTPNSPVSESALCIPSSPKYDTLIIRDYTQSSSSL

| SMILES | Ki | Ki (head prints no unit) |
| --- | --- | --- |
| COc1ccccc1-c1cc(C)nc(C(=O)Nc2nc(C)cs2)c1 [Example 13, 4-(2-Methoxy-phenyl)-6-methyl-pyridine-2-carboxylic acid (4-methyl-thiazol-2-yl)-amide] |  | 25 nM |
| Cc1cc(-c2cc(C)nc(C(=O)Nc3nc(C#N)cs3)c2)ccn1 [Example 185, 6,2′-Dimethyl-[4,4′]bipyridinyl-2-carboxylic acid (4-cyano-thiazol-2-yl)-amide] | 290 nM |  |
| Cc1cc(-c2cccc(S(C)(=O)=O)c2)cc(C(=O)Nc2nc(C)cs2)n1 [Example 8, 4-(3-Methanesulfonyl-phenyl)-6-methyl-pyridine-2-carboxylic acid (4-methyl-thiazol-2-yl)-amide] |  | 396 nM |
| Cc1cc(-c2cc(F)cc(F)c2)nc(C(=O)Nc2nc(C)cs2)n1 [Example 192, 4-(3,5-Difluoro-phenyl)-6-methyl-pyrimidine-2-carboxylic acid (4-methyl-thiazol-2-yl)-amide] | 110 nM |  |
| Cc1nc(C(=O)Nc2ccn(C)n2)cc(-c2cc(F)cc(F)c2)n1 [Example 35, 6-(3,5-Difluoro-phenyl)-2-methyl-pyrimidine-4-carboxylic acid (1-methyl-1H-pyrazol-3-yl)-amide] | 51 nM |  |
| Cc1cc(-c2cc(F)c(F)c(F)c2)cc(C(=O)Nc2nc(C)cs2)n1 [Example 11, 6-Methyl-4-(3,4,5-trifluoro-phenyl)-pyridine-2-carboxylic acid (4-methyl-thiazol-2-yl)-amide] |  | 10 nM |
| Cc1cc(-c2ccccc2Cl)cc(C(=O)Nc2nc(C)cs2)n1 [Example 14, 4-(2-Chloro-phenyl)-6-methyl-pyridine-2-carboxylic acid (4-methyl-thiazol-2-yl)-amide] |  | 4 nM |
| Cc1cc(-c2cc(F)cc(F)c2)cc(C(=O)Nc2nc(C)c(F)s2)n1 [Example 199, 4-(3,5-Difluoro-phenyl)-6-methyl-pyridine-2-carboxylic acid (5-fluoro-4-methyl-thiazol-2-yl)-amide] | 14 nM |  |
| CCOC(=O)Cn1ccc(NC(=O)c2cc(-c3cc(F)cc(F)c3)cc(C)n2)n1 [Example 170, (3-{[4-(3,5-Difluorophenyl)-6-methyl-pyridine-2-carbonyl]-amino}-pyrazol-1-yl)-acetic acid ethyl ester] | 576 nM |  |
| Cc1cc(-c2cc(F)ccc2F)cc(C(=O)Nc2nc(C)cs2)n1 [Example 5, 4-(2,5-Difluoro-phenyl)-6-methyl-pyridine-2-carboxylic acid (4-methyl-thiazol-2-yl)-amide] |  | 29 nM |
| Cc1csc(NC(=O)c2cc(-c3cc(F)cc(F)c3)nc(C)n2)n1 [Example 33, 6-(3,5-Difluoro-phenyl)-2-methyl-pyrimidine-4-carboxylic acid (4-methyl-thiazol-2-yl)-amide] | 14 nM |  |
| Cc1cc(-c2cncc(F)c2)cc(C(=O)Nc2ccnc(Cl)c2)n1 [Example 67, 5-Fluoro-6′-methyl-[3,4′]bipyridinyl-2′-carboxylic acid (2-chloro-pyridin-4-yl)-amide] | 37 nM |  |
| Cc1cc(-c2cccc(OC(F)(F)F)c2)cc(C(=O)Nc2nc(C)cs2)n1 [Example 7, 6-Methyl-4-(3-trifluoromethoxy-phenyl)-pyridine-2-carboxylic acid (4-methyl-thiazol-2-yl)-amide] |  | 14 nM |
| Cc1cc(-c2cncc(F)c2)cc(C(=O)Nc2nc(C(F)F)cs2)n1 [Example 174, 5-Fluoro-6′-methyl-[3,4′]bipyridinyl-2′-carboxylic acid (4-difluoromethyl-thiazol-2-yl)-amide] | 39 nM |  |
| Cc1cc(-c2cc(F)cc(F)c2)cc(C(=O)Nc2nc(C)cs2)n1 [Example 2, 4-(3,5-Difluoro-phenyl)-6-methyl-pyridine-2-carboxylic acid (4-methyl-thiazol-2-yl)-amide] |  | 7 nM |
| Cc1cc(NC(=O)c2cc(-c3cc(F)cc(F)c3)nc(C)n2)ccn1 [Example 37, 6-(3,5-Difluoro-phenyl)-2-methyl-pyrimidine-4-carboxylic acid (2-methyl-pyridin-4-yl)-amide] | 90 nM |  |
| Cc1cc(-c2cc(Cl)cc(Cl)c2)cc(C(=O)Nc2csc(C)n2)n1 [Example 20, 4-(3,5-Dichloro-phenyl)-6-methyl-pyridine-2-carboxylic acid (2-methyl-thiazol-4-yl)-amide] |  | 6 nM |
| Cc1cc(-c2ccc(F)cc2)cc(C(=O)Nc2ccn(C)n2)n1 [Example 29, 4-(4-Fluoro-phenyl)-6-methyl-pyridine-2-carboxylic acid (1-methyl-1H-pyrazol-3-yl)-amide] | 250 nM |  |
| COc1cncc(-c2cc(C)nc(C(=O)Nc3ccn(C)n3)c2)c1 [Example 50, 5-Methoxy-6′-methyl-[3,4′]bipyridinyl-2′-carboxylic acid (1-methyl-1H-pyrazol-3-yl)-amide] | 213 nM |  |
| Cc1cc(-c2cncc(C(F)(F)F)c2)cc(C(=O)Nc2nc(C)cs2)n1 [Example 131, 6′-Methyl-5-trifluoromethyl-[3,4′]bipyridinyl-2′-carboxylic acid (4-methyl-thiazol-2-yl)-amide] | 196 nM |  |
| Cc1cc(-c2ccc(F)c(F)c2)cc(C(=O)Nc2nc(C)cs2)n1 [Example 10, 4-(3,4-Difluoro-phenyl)-6-methyl-pyridine-2-carboxylic acid (4-methyl-thiazol-2-yl)-amide] |  | 23 nM |
| Cc1cc(-c2cc(C)nn2C)c(C)c(C(=O)Nc2csc(C)n2)n1 [Example 109, 4-(2,5-Dimethyl-2H-pyrazol-3-yl)-3,6-dimethyl-pyridine-2-carboxylic acid (2-methyl-thiazol-4-yl)-amide] | 127 nM |  |
| Cc1cc(-c2cc(Cl)cc(Cl)c2)cc(C(=O)Nc2ccn(C)n2)n1 [Example 23, 4-(3,5-Dichloro-phenyl)-6-methyl-pyridine-2-carboxylic acid (1-methyl-1H-pyrazol-3-yl)-amide] | 4 nM |  |
| Cc1cc(NC(=O)c2cc(-c3ccnc(C#N)c3)cc(C)n2)ccn1 [Example 142, 2′-Cyano-6-methyl-[4,4′]bipyridinyl-2-carboxylic acid (2-methyl-pyridin-4-yl)-amide] | 182 nM |  |

Next, values leading:

| Ki | Ki (head prints no unit) | SMILES |
| --- | --- | --- |
| 411 nM |  | Cc1cc(NC(=O)c2cc(-c3ccc(F)cc3)cc(C)n2)ccn1 [Example 28, 4-(4-Fluoro-phenyl)-6-methyl-pyridine-2-carboxylic acid (2-methyl-pyridin-4-yl)-amide] |
|  | 17 nM | Cc1cc(-c2cccnc2)cc(C(=O)Nc2nc(C)cs2)n1 [Example 16, 6′-Methyl-[3,4′]bipyridinyl-2′-carboxylic acid (4-methyl-thiazol-2-yl)-amide] |
| 111 nM |  | Cc1cc(-c2cncc(F)c2)cc(C(=O)Nc2cccc(Cl)c2)n1 [Example 177, 5-Fluoro-6′-methyl-[3,4′]bipyridinyl-2′-carboxylic acid (3-chloro-phenyl)-amide] |
| 364 nM |  | Cc1cc(-c2cncc(F)c2)cc(C(=O)Nc2ccccc2)n1 [Example 180, 5-Fluoro-6′-methyl-[3,4′]bipyridinyl-2′-carboxylic acid phenylamide] |
|  | 124 nM | Cc1cc(-c2cncnc2)cc(C(=O)Nc2nc(C)cs2)n1 [Example 18, 6-Methyl-4-pyrimidin-5-yl-pyridine-2-carboxylic acid (4-methyl-thiazol-2-yl)-amide] |
|  | 11 nM | Cc1cc(-c2cccc(C#N)c2)cc(C(=O)Nc2nc(C)cs2)n1 [Example 3, 4-(3-Cyano-phenyl)-6-methyl-pyridine-2-carboxylic acid (4-methyl-thiazol-2-yl)-amide] |
| 20 nM |  | Cc1cccc(NC(=O)c2cc(-c3cccnc3)cc(C)n2)n1 [Example 87, 6′-Methyl-[3,4′]bipyridinyl-2′-carboxylic acid (6-methyl-pyridin-2-yl)-amide] |
|  | 244 nM | Cc1cc(-c2ccc(Cl)nc2)cc(C(=O)Nc2nc(C)cs2)n1 [Example 4, 6-Chloro-6′-methyl-[3,4′]bipyridinyl-2′-carboxylic add (4-methyl-thiazol-2-yl)-amide] |
| 8 nM |  | Cc1cc(-c2cc(F)cc(F)c2)cc(C(=O)Nc2ccnc(C)n2)n1 [Example 64, 4-(3,5-Difluorophenyl)-6-methyl-pyridine-2-carboxylic acid (2-methyl-pyrimidin-4-yl)-amide] |
|  | 3 nM | Cc1cc(-c2cccc(F)c2)cc(C(=O)Nc2nc(C)cs2)n1 [Example 1, 4-(3-Fluoro-phenyl)-6-methyl-pyridine-2-carboxylic acid (4-methyl-thiazol-2-yl)-amide] |
|  | 25 nM | Cc1cc(-c2cncc(F)c2)cc(C(=O)Nc2nc(C)cs2)n1 [Example 19, 5-Fluoro-6′-methyl-[3,4′]bipyridinyl-2′-carboxylic acid (4-methyl-thiazol-2-yl)-amide] |
| 411 nM |  | Cc1cc(-c2cccnc2)cc(C(=O)Nc2cccc(C#N)c2)n1 [Example 95, 6′-Methyl-[3,4′]bipyridinyl-2′-carboxylic acid (3-cyanophenyl)-amide] |
